We go through 28 compounds from patent publication US20070287738A1, “Substituted Cyanopyridines as protein kinase inhibitors” (priority 2006, published 2007).

pIC50: −log10 of the molar value.

One may read the pIC50 as the negative decadic logarithm of the IC50, by convention in mol/L.

T3 sequence (Q04759 362-706): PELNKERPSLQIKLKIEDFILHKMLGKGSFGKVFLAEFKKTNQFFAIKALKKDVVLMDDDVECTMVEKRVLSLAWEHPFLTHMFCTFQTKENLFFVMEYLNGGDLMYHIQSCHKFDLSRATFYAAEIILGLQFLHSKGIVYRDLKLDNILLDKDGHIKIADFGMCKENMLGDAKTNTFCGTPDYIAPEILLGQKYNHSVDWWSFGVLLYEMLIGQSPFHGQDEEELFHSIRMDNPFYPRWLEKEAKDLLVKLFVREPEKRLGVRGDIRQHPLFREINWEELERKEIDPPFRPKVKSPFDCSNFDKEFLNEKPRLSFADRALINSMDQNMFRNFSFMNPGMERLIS
T2 sequence (Q04759 whole entry): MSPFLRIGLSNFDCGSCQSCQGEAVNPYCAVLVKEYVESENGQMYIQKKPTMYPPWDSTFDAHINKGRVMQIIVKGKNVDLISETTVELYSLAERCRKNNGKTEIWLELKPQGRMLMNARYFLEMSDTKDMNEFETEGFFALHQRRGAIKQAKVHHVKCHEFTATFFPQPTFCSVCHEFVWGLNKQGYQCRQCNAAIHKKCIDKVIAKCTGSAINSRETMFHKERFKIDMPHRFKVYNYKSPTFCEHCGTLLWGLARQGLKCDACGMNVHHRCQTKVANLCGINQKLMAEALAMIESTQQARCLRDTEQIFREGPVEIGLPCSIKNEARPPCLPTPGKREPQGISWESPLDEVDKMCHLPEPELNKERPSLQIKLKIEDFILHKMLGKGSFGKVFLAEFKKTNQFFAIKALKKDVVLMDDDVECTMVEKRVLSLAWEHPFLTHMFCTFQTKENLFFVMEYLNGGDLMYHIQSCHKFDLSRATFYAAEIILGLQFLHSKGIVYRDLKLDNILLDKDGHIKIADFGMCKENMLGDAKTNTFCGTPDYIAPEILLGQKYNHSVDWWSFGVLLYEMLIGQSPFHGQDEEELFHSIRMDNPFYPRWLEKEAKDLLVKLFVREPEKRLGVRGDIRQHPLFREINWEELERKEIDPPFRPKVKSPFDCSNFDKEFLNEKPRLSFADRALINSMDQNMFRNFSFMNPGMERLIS

The target in the first experiment is T1, purified recombinant full length PKC theta (Panvera, P2996) (Homo sapiens, UniProt Q04759).
T1 construct: purified recombinant full length PKC theta (Panvera, P2996); purchased Panvera P2996
T1 sequence (Q04759 whole entry): as above
As to the kind of experiment: Radioactive kinase assay for inhibition of full length (FL) PKCθ. Format: biochemical. As to conditions: full length enzyme; radioactive (ATP γ P33) assay; average value. On the procedure:
(§1) This assay is based on the phosphorylation of a biotinylated substrate by a kinase utilizing radiolabeled ATP (ATP γ P33). The substrate was a biotinylated peptide with a sequence of biotin-FARKGSLRQ-C(O)NH2. The enzyme was purified recombinant active kinase domain of full length PKC theta (amino acids 362-706). The assay buffer was composed of 100 mM Hepes, pH7.5, 2 mM MgCl2, 20 mM β-glycerophosphate and 0.008% TritonX 100. A reaction mixture of ATP, ATP γ P33 (PerkinElmer), DTT, and the enzyme was prepared in the assay buffer and added to a 96-well polypropylene plate. The compound (diluted in DMSO in a separate 96-well polypropylene plate) was added to the reaction mixture and incubated at room temperature. Following the incubation, the peptide substrate was added to the reaction mixture to initiate the enzymatic reaction. The reaction was terminated with the addition of a stop solution (100 mM EDTA, 0.2% TritonX100, and 20 mM NaHPO4) and transferred from the assay plate to a washed streptavidin-coated 96-well scintiplate (PerkinElmer). The scintiplate was incubated at room temperature, washed in PBS with 0.1% TritonX 100, and counted in the 1450 Microbeta Trilux (Wallac, Version 2.60). Counts were recorded for each well as corrected counts per minute (CCPM). The counts were considered corrected because they were adjusted according to a P33 normalization protocol, which corrects for efficiency and background differences between the instrument detectors (software version 4.40.01).
A Radioactive Kinase Assay for Inhibition of Full Length (FL) PKCθ Inhibitors
This assay differs from what was described above in that the enzyme used was purified recombinant full length PKC theta (Panvera, P2996).
Consider `CCOc1cc(Nc2c(C#N)cncc2-c2ccc(OC)c(OC)c2)c(Cl)cc1Cl` [Compound 138, 4-[(2,4-dichloro-5-ethoxyphenyl)amino]-5-(3,4-dimethoxyphenyl)nicotinonitrile], for which the negative-log IC50 (pIC50) is 6.49.

With `CCCOc1cc(Nc2c(C#N)cncc2-c2ccc(OC)c(OC)c2)c(Cl)cc1Cl` [Compound 139, 4-[(2,4-dichloro-5-propoxyphenyl)amino]-5-(3,4-dimethoxyphenyl)nicotinonitrile], the negative-log IC50 (pIC50) is 5.10.

For `CCCCOc1cc(Nc2c(C#N)cncc2-c2ccc(OC)c(OC)c2)c(Cl)cc1Cl` [Compound 140, 4-[(5-butoxy-2,4-dichlorophenyl)amino]-5-(3,4-dimethoxyphenyl)nicotinonitrile], the pIC50 was 5.01.

On to `COc1ccc(-c2cncc(C#N)c2Nc2cc(OCCO)c(Cl)cc2Cl)cc1OC` [Compound 141, 4-{[2,4-dichloro-5-(2-hydroxyethoxy)phenyl]amino}-5-(3,4-dimethoxyphenyl)nicotinonitrile], for which the pIC50 was 6.80.

As for `COCCOc1cc(-c2cncc(C#N)c2Nc2cc(OC)c(Cl)cc2Cl)ccc1OC` [Compound 148, 4-[(2,4-dichloro-5-methoxyphenyl)amino]-5-[4-methoxy-3-(2-methoxyethoxy)phenyl]nicotinonitrile], the negative logarithm of the IC50 (pIC50) is 6.28.

For the compound `COCCOc1ccc(-c2cncc(C#N)c2Nc2cc(OC)c(Cl)cc2Cl)cc1OC` [Compound 149, 4-[(2,4-dichloro-5-methoxyphenyl)amino]-5-[3-methoxy-4-(2-methoxyethoxy)phenyl]nicotinonitrile], the pIC50 is 5.15.

On to `COc1cc(Nc2c(C#N)cncc2-c2cccc(OCCCl)c2)c(Cl)cc1Cl` [Compound 150, 5-[3-(2-chloroethoxy)phenyl]-4-[(2,4-dichloro-5-methoxyphenyl)amino]nicotinonitrile], for which the pIC50 is 6.30.

Consider `COc1cc(Nc2c(C#N)cncc2-c2cccc(OCCN3CCCC3)c2)c(Cl)cc1Cl` [Compound 151, 4-[(2,4-dichloro-5-methoxyphenyl)amino]-5-[3-(2-pyrrolidin-1-ylethoxy)phenyl]nicotinonitrile], for which the negative logarithm of the IC50 (pIC50) is 5.15.

The next experiment addresses T2, human PKCθ full length enzyme (Homo sapiens, UniProt Q04759).
T2 construct: human PKCθ full length enzyme (Panvera Cat# P2996); purchased Panvera P2996
As to the kind of experiment: PKCθ IMAP assay. Format: biochemical. As to conditions: full length enzyme 1 nM; ATP 6 μM; peptide 100 nM; FP readout; average value. As to the method:
The materials used include the following: human PKCθ full length enzyme (Panvera Cat# P2996); substrate peptide: 5FAM-RFARKGSLRQKNV-OH (Molecular Devices, RP7032); ATP (Sigma Cat # A2383); DTT (Pierce, 20291); 5× kinase reaction buffer (Molecular Devices, R7209); 5× binding buffer A (Molecular Devices, R7282), 5× binding buffer B (Molecular Devices, R7209); IMAP Beads (Molecular Devices, R7284); and 384-well plates (Corning Costar, 3710).
The reaction buffer was prepared by diluting the 5× stock reaction buffer and adding DTT to obtain a concentration of 3.0 mM. The binding buffer was prepared by diluting the 5× binding buffer A. A master mix solution was prepared using a 90% dilution of the reaction buffer containing 2× ATP (12 uM) and 2× peptide (200 nm). Compounds were diluted in DMSO to 20× of the maximum concentration for the IC50 measurement. 27 μl of the master mix solution for each IC50 curve was added to the first column in a 384-well plate and 3 μl of 20× compound in DMSO was added to each well. The final concentration of compound was 2× and 10% DMSO. DMSO was added to the rest of the master mix to increase the concentration to 10%. 10 μl of the master mix containing 10% DMSO was added to the rest of the wells on the plate except the 2nd column. 20 μl was transferred from the first column to the 2nd column.
The compounds were serially diluted in 2:1 ratio starting from the 2nd column. A 2× (2 nM) PKCθ solution was made in the reaction buffer. 10 μl of the PKCθ solution was added to every well to achieve these final concentrations: PKCθ—1 nM; ATP—6 μM; peptide—100 nM; DMSO—5%. Samples were incubated for 25 minutes at room temperature. The binding reagent was prepared by diluting the beads in 1× binding buffer to 800:1. 50 μl of the binding reagent was added to every well and incubated for 20 minutes. FP was measured using Envision2100 (PerkinElmer Life Sciences). Wells with no ATPs and wells with no enzymes were used as controls.
Take `COc1ccc(-c2cncc(C#N)c2Nc2cc(OC)c(OC)c(OC)c2)cc1OC` [Compound 119, 5-(3,4-dimethoxyphenyl)-4-[(3,4,5-trimethoxyphenyl)amino]nicotinonitrile]: the negative-log IC50 (pIC50) was 5.71.

Compound `COc1ccc(-c2cncc(C#N)c2Nc2cc(OCCO)c(Cl)cc2Cl)cc1OC` [Compound 141, 4-{[2,4-dichloro-5-(2-hydroxyethoxy)phenyl]amino}-5-(3,4-dimethoxyphenyl)nicotinonitrile] had a pIC50 of 7.00.

The next experiment has as its target T3, purified recombinant active kinase domain of full length PKC theta (amino acids 362-706) (Homo sapiens, UniProt Q04759).
T3 construct: active kinase domain of full length PKC theta (amino acids 362-706)
As to the kind of experiment: Radioactive kinase assay for inhibition of the active kinase domain (KD) of PKCθ. As to conditions: radioactive (ATP γ P33) assay, average value. The format is biochemical. As to the method:
A Radioactive Kinase Assay for Inhibition of the Active Kinase Domain (KD) of PKCθ
as §1
Consider `COc1ccc(Nc2c(C#N)cncc2-c2ccc(OC)c(OC)c2)cc1OC` [Compound 105, 5-(3,4-dimethoxyphenyl)-4-[(3,4-dimethoxyphenyl)amino]nicotinonitrile], for which the pIC50 is 4.97.

As to `COc1ccc(-c2cncc(C#N)c2Nc2ccc(Cl)cc2F)cc1OC` [Compound 106, 4-[(4-chloro-2-fluorophenyl)amino]-5-(3,4-dimethoxyphenyl)nicotinonitrile], the negative logarithm of the IC50 (pIC50) was 6.08.

With `COc1ccc(-c2cncc(C#N)c2Nc2ccc(F)c(Cl)c2)cc1OC` [Compound 107, 4-[(3-chloro-4-fluorophenyl)amino]-5-(3,4-dimethoxyphenyl)nicotinonitrile], the pIC50 was 5.54.

On to `COc1ccc(-c2cncc(C#N)c2Nc2ccc(Cl)cc2)cc1OC` [Compound 108, 4-[(4-chlorophenyl)amino]-5-(3,4-dimethoxyphenyl)nicotinonitrile], for which the negative-log IC50 (pIC50) is 5.56.

On to `COc1ccc(-c2cncc(C#N)c2Nc2ccc(C)cc2C)cc1OC` [Compound 109, 5-(3,4-dimethoxyphenyl)-4-[(2,4-dimethylphenyl)amino]nicotinonitrile], for which the pIC50 was 6.09.

In the case of `COc1ccc(Nc2c(C#N)cncc2-c2ccc(OC)c(OC)c2)cc1` [Compound 110, 5-(3,4-dimethoxyphenyl)-4-[(4-methoxyphenyl)amino]nicotinonitrile], the negative logarithm of the IC50 (pIC50) was 5.94.

Turning to `COc1ccc(Nc2c(C#N)cncc2-c2ccc(OC)c(OC)c2)cc1Cl` [Compound 111, 4-[(3-chloro-4-methoxyphenyl)amino]-5-(3,4-dimethoxyphenyl)nicotinonitrile], the negative-log IC50 (pIC50) was 5.85.

As to `COc1ccc(-c2cncc(C#N)c2Nc2cc(Cl)ccc2Cl)cc1OC` [Compound 113, 4-[(2,5-dichlorophenyl)amino]-5-(3,4-dimethoxyphenyl)nicotinonitrile], the pIC50 is 5.44.

Take `COc1ccc(Nc2c(C#N)cncc2-c2ccc(OC)c(OC)c2)c(C)c1` [Compound 114, 5-(3,4-dimethoxyphenyl)-4-[(4-methoxy-2-methylphenyl)amino]nicotinonitrile]: the pIC50 was 6.40.

Regarding `COc1ccc(Cl)cc1Nc1c(C#N)cncc1-c1ccc(OC)c(OC)c1` [Compound 116, 4-[(5-chloro-2-methoxyphenyl)amino]-5-(3,4-dimethoxyphenyl)nicotinonitrile], the negative logarithm of the IC50 (pIC50) is 5.49.

On to `COc1ccc(-c2cncc(C#N)c2Nc2cccc(OCc3ccccc3)c2)cc1OC` [Compound 117, 4-{[3-(benzyloxy)phenyl]amino}-5-(3,4-dimethoxyphenyl)nicotinonitrile], for which the negative logarithm of the IC50 (pIC50) is 4.86.

For the compound `COc1ccc(-c2cncc(C#N)c2Nc2ccc(C)cc2)cc1OC` [Compound 118, 5-(3,4-dimethoxyphenyl)-4-[(4-methylphenyl)amino]nicotinonitrile], the negative logarithm of the IC50 (pIC50) was 5.35.

As for `COc1ccc(-c2cncc(C#N)c2Nc2cc(OC)c(OC)c(OC)c2)cc1OC` [Compound 119, 5-(3,4-dimethoxyphenyl)-4-[(3,4,5-trimethoxyphenyl)amino]nicotinonitrile], the negative-log IC50 (pIC50) was 4.93.

In the case of `COc1ccc(-c2cncc(C#N)c2Nc2ccc(OCc3cccc(C#N)c3)c(Cl)c2)cc1OC` [Compound 122, 4-({3-chloro-4-[(3-cyanobenzyl)oxy]phenyl}amino)-5-(3,4-dimethoxyphenyl)nicotinonitrile], the pIC50 was 2.98.

Regarding `COc1ccc(-c2cncc(C#N)c2Nc2ccc(OCc3cccs3)c(Cl)c2)cc1OC` [Compound 123, 4-{[3-chloro-4-(thien-2-ylmethoxy)phenyl]amino}-5-(3,4-dimethoxyphenyl)nicotinonitrile], the negative logarithm of the IC50 (pIC50) was 4.42.

Turning to `COc1ccc(-c2cncc(C#N)c2Nc2ccc(Cl)cc2Cl)cc1OC` [Compound 126, 4-[(2,4-dichlorophenyl)amino]-5-(3,4-dimethoxyphenyl)nicotinonitrile], the pIC50 is 6.47.

In the case of `COc1ccc(-c2cncc(C#N)c2Nc2cccc(Br)c2)cc1OC` [Compound 135, 4-[(3-bromophenyl)amino]-5-(3,4-dimethoxyphenyl)nicotinonitrile], the pIC50 is 5.30.

With `N#Cc1cncc(-c2cccc([N+](=O)[O-])c2)c1Nc1ccc(OCc2ccccc2)c(Cl)c1` [Compound 142, 4-{[4-(benzyloxy)-3-chlorophenyl]amino}-5-(3-nitrophenyl)nicotinonitrile], the pIC50 was 3.67.

In the case of `N#Cc1cncc(-c2cccc([N+](=O)[O-])c2)c1Nc1ccc(F)c(Cl)c1` [Compound 144, 4-[(3-chloro-4-fluorophenyl)amino]-5-(3-nitrophenyl)nicotinonitrile], the negative logarithm of the IC50 (pIC50) was 3.80.

For the compound `N#Cc1cncc(-c2ccccc2[N+](=O)[O-])c1Nc1ccc(F)c(Cl)c1` [Compound 146, 4-[(3-chloro-4-fluorophenyl)amino]-5-(2-nitrophenyl)nicotinonitrile], the pIC50 is 5.41.
